Test results reported in patent US20110070215A1 (priority 2009, published 2011).

System: DU-145 cells
Type: cell-based, human

In the case of `C=C1[C@@H](C)[C@H]2[C@H](Cc3ccccc3)NC(=O)[C@]23[C@H](OC(C)=O)/C=C/[C@@](C)(O)C(=O)[C@@H](C)C/C=C/[C@H]3[C@@H]1O` [Cytochalasin-D], the “Relative Wound Density at 24 Hours, Mean” value was 3.3 ± 0.2, the “Relative Wound Density at 24 Hours, Percent Relative to Media” value was 4% and the “effect on cell migration” value was “did not migrate”.
